Data published in the supplement of paper PMC9663587.

Assays:
[1] = compound: CC(=O)c1c(C)c2cnc(Nc3ccc(N4CCNCC4)cn3)nc2n(C2CCCC2)c1=O; test: increase in dead-cell fraction, 72 h; higher = more death;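 note: breast cancer cell lines in 384-well plates, stained with Hoechst plus LIVE/DEAD far red dye and imaged, cells above an LDR intensity threshold counted dead, Hoechst-negative corpses included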
[2] = compound: CCc1cnn2c(NCc3ccc[n+]([O-])c3)cc(N3CCCC[C@H]3CCO)nc12; test: as above
THZ1 = compound: CN(C)C/C=C/C(=O)Nc1ccc(C(=O)Nc2cccc(Nc3ncc(Cl)c(-c4c[nH]c5ccccc45)n3)c2)cc1 [THZ1]; test: as above
LEE011/Ribociclib = compound: CN(C)C(=O)c1cc2cnc(Nc3ccc(N4CCNCC4)cn3)nc2n1C1CCCC1 [LEE011/Ribociclib]; test: as above
[3] = compound: CCN1CCN(Cc2ccc(Nc3ncc(F)c(-c4cc(F)c5nc(C)n(C(C)C)c5c4)n3)nc2)CC1; test: as above
Neratinib/HKI272 = compound: CCOc1cc2ncc(C#N)c(Nc3ccc(OCc4ccccn4)c(Cl)c3)c2cc1NC(=O)/C=C/CN(C)C [Neratinib/HKI272]; test: as above
BSJ-03-123 = compound: CC(=O)c1c(C)c2cnc(Nc3ccc(N4CCN(CCOCCOCCOCCNC(=O)COc5cccc6c5C(=O)N(C5CCC(=O)NC5=O)C6=O)CC4)cn3)nc2n(C2CCCC2)c1=O [BSJ-03-123]; test: as above
Flavopiridol = compound: CN1CC[C@H](c2c(O)cc(O)c3c(=O)cc(-c4ccccc4Cl)oc23)[C@H](O)C1 [Flavopiridol]; test: as above
Ipatasertib/GDC0068 = compound: CC(C)NC[C@@H](C(=O)N1CCN(c2ncnc3c2[C@H](C)C[C@H]3O)CC1)c1ccc(Cl)cc1 [Ipatasertib/GDC0068]
[4] = compound: COc1ccc2c(c1)[C@]1(C[C@H]1c1ccc3c(/C=C/c4ccc(CN5C[C@@H](C)O[C@@H](C)C5)cc4)n[nH]c3c1)C(=O)N2
AZD7762 = compound: NC(=O)Nc1cc(-c2cccc(F)c2)sc1C(=O)N[C@H]1CCCNC1 [AZD7762]
Tivantinib/ARQ197 = compound: O=C1NC(=O)[C@@H](c2cn3c4c(cccc24)CCC3)[C@@H]1c1c[nH]c2ccccc12 [Tivantinib/ARQ197]
AZD6738 = compound: C[C@@H]1COCCN1c1cc(C2([S@](C)(=N)=O)CC2)nc(-c2cc[nH]c3nccc2-3)n1 [AZD6738]
BSJ-01-175 = compound: CN(C)C/C=C/C(=O)Nc1ccc(O[C@@H]2CCC[C@@H](Nc3ncc(Cl)c(-c4c[nH]c5ccccc45)n3)C2)cc1 [BSJ-01-175]
[5] = compound: CCN1CCN(Cc2ccc(Nc3ncc(F)c(-c4cc(F)c5nc(C)n(C(C)C)c5c4)n3)nc2)CC1
[6] = compound: CCC1=CN=CN=C1N2CCN(CC2)CC3=NC4=C(N3)C=C(C=C4)C(F)(F)F
AZD2014 = compound: CNC(=O)c1cccc(-c2ccc3c(N4CCOC[C@@H]4C)nc(N4CCOC[C@@H]4C)nc3n2)c1 [AZD2014]
Vorinostat = compound: O=C(CCCCCCC(=O)Nc1ccccc1)NO [Vorinostat]
[7] = compound: CC(=O)Nc1cccc(-n2c(=O)n(C3CC3)c(=O)c3c(Nc4ccc(I)cc4F)n(C)c(=O)c(C)c32)c1
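Throughout, for GR50, 72 h: breast cancer and non-malignant breast epithelial cell lines, Deep Dye Drop or Dye Drop imaging, nine half-log doses, GR normalized to time-zero plates and DMSO-only controls.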

## MCF10A
[1]; 0.0003162 µM
  increase in dead-cell fraction: 0.0006
[1]; 0.001 µM
  increase in dead-cell fraction: 0.0003
[1]; 0.003162 µM
  increase in dead-cell fraction: -0.0024
[1]; 0.01 µM
  increase in dead-cell fraction: -0.0041
[1]; 0.03162 µM
  increase in dead-cell fraction: -0.0059
[1]; 0.1 µM
  increase in dead-cell fraction: -0.0084
[1]; 0.3162 µM
  increase in dead-cell fraction: -0.0088
[1]; 1 µM
  increase in dead-cell fraction: -0.0079
[1]; 3.162 µM
  increase in dead-cell fraction: -0.005
[2]; 0.0001 µM
  increase in dead-cell fraction: 0.0013
[2]; 0.0003162 µM
  increase in dead-cell fraction: 0.0005
[2]; 0.001 µM
  increase in dead-cell fraction: 0.0001
[2]; 0.003162 µM
  increase in dead-cell fraction: 0.0053
[2]; 0.01 µM
  increase in dead-cell fraction: 0.0077
[2]; 0.03162 µM
  increase in dead-cell fraction: 0.5
[2]; 0.1 µM
  increase in dead-cell fraction: 0.575
[2]; 0.3162 µM
  increase in dead-cell fraction: 0.559
[2]; 1 µM
  increase in dead-cell fraction: 0.523
THZ1; 0.0001 µM
  increase in dead-cell fraction: -0.0014
THZ1; 0.0003162 µM
  increase in dead-cell fraction: 0.0002
THZ1; 0.001 µM
  increase in dead-cell fraction: 0.0012
THZ1; 0.003162 µM
  increase in dead-cell fraction: -0.0011
THZ1; 0.01 µM
  increase in dead-cell fraction: -0.0007
THZ1; 0.03162 µM
  increase in dead-cell fraction: 0.0074
THZ1; 0.1 µM
  increase in dead-cell fraction: 0.0416
THZ1; 0.3162 µM
  increase in dead-cell fraction: 0.0884
THZ1; 1 µM
  increase in dead-cell fraction: 0.642
LEE011/Ribociclib; 0.001 µM
  increase in dead-cell fraction: -0.0014
LEE011/Ribociclib; 0.003162 µM
  increase in dead-cell fraction: 0.0018
LEE011/Ribociclib; 0.01 µM
  increase in dead-cell fraction: -0.0007
LEE011/Ribociclib; 0.03162 µM
  increase in dead-cell fraction: -0.0008
LEE011/Ribociclib; 0.1 µM
  increase in dead-cell fraction: -0.0006
LEE011/Ribociclib; 0.3162 µM
  increase in dead-cell fraction: 0.0001
LEE011/Ribociclib; 1 µM
  increase in dead-cell fraction: -0.0005
LEE011/Ribociclib; 3.162 µM
  increase in dead-cell fraction: -0.0003
LEE011/Ribociclib; 10 µM
  increase in dead-cell fraction: 0.0032
[3]; 0.001 µM
  increase in dead-cell fraction: -0.0006
[3]; 0.003162 µM
  increase in dead-cell fraction: -0.0032
[3]; 0.01 µM
  increase in dead-cell fraction: -0.0061
[3]; 0.03162 µM
  increase in dead-cell fraction: -0.0084
[3]; 0.1 µM
  increase in dead-cell fraction: -0.0079
[3]; 0.3162 µM
  increase in dead-cell fraction: -0.0081
[3]; 1 µM
  increase in dead-cell fraction: -0.0035
[3]; 3.162 µM
  increase in dead-cell fraction: -0.0012
[3]; 10 µM
  increase in dead-cell fraction: 0.0346
Neratinib/HKI272; 0.0003162 µM
  increase in dead-cell fraction: -0.0011
Neratinib/HKI272; 0.001 µM
  increase in dead-cell fraction: -0.0018
Neratinib/HKI272; 0.003162 µM
  increase in dead-cell fraction: -0.0008
Neratinib/HKI272; 0.01 µM
  increase in dead-cell fraction: -0.0018
Neratinib/HKI272; 0.03162 µM
  increase in dead-cell fraction: -0.0064
Neratinib/HKI272; 0.1 µM
  increase in dead-cell fraction: -0.004
Neratinib/HKI272; 0.3162 µM
  increase in dead-cell fraction: 0.003
Neratinib/HKI272; 1 µM
  increase in dead-cell fraction: 0.0444
Neratinib/HKI272; 3.162 µM
  increase in dead-cell fraction: 0.164
BSJ-03-123; 0.001 µM
  increase in dead-cell fraction: 0.0008
BSJ-03-123; 0.003162 µM
  increase in dead-cell fraction: -0.0013
BSJ-03-123; 0.01 µM
  increase in dead-cell fraction: -0.0008
BSJ-03-123; 0.03162 µM
  increase in dead-cell fraction: 0.0005
BSJ-03-123; 0.1 µM
  increase in dead-cell fraction: 0.0018
BSJ-03-123; 0.3162 µM
  increase in dead-cell fraction: -0.0009
BSJ-03-123; 1 µM
  increase in dead-cell fraction: 0.0005
BSJ-03-123; 3.162 µM
  increase in dead-cell fraction: 0.0017
BSJ-03-123; 10 µM
  increase in dead-cell fraction: 0.153
Flavopiridol; 0.0001 µM
  increase in dead-cell fraction: 0.0016
Flavopiridol; 0.0003162 µM
  increase in dead-cell fraction: 0
Flavopiridol; 0.001 µM
  increase in dead-cell fraction: -0.0007
Flavopiridol; 0.003162 µM
  increase in dead-cell fraction: -0.0005
Flavopiridol; 0.01 µM
  increase in dead-cell fraction: 0
Flavopiridol; 0.03162 µM
  increase in dead-cell fraction: 0.0039
Flavopiridol; 0.1 µM
  increase in dead-cell fraction: 0.0255
Flavopiridol; 0.3162 µM
  increase in dead-cell fraction: 0.407
Flavopiridol; 1 µM
  increase in dead-cell fraction: 0.87
Ipatasertib/GDC0068
  GR50, 72 h: > 10 µM
[4]
  GR50, 72 h: 0.00588 µM
AZD7762
  GR50, 72 h: 1.81 µM
Tivantinib/ARQ197
  GR50, 72 h: 0.181 µM
AZD6738
  GR50, 72 h: 9.08 µM
BSJ-01-175
  GR50, 72 h: 1.46 µM
[5]
  GR50, 72 h: 0.34 µM
[6]
  GR50, 72 h: > 10 µM
AZD2014
  GR50, 72 h: 0.473 µM
Vorinostat
  GR50, 72 h: 2.53 µM
[7]
  GR50, 72 h: 0.00336 µM
